The target in this experiment is T1, AgKv2.1 (voltage-gated potassium channel Kv2.1) (Anopheles gambiae, UniProt Q5TT67).
T1 construct: gene 1274312
T1 sequence (Q5TT67 1-1014): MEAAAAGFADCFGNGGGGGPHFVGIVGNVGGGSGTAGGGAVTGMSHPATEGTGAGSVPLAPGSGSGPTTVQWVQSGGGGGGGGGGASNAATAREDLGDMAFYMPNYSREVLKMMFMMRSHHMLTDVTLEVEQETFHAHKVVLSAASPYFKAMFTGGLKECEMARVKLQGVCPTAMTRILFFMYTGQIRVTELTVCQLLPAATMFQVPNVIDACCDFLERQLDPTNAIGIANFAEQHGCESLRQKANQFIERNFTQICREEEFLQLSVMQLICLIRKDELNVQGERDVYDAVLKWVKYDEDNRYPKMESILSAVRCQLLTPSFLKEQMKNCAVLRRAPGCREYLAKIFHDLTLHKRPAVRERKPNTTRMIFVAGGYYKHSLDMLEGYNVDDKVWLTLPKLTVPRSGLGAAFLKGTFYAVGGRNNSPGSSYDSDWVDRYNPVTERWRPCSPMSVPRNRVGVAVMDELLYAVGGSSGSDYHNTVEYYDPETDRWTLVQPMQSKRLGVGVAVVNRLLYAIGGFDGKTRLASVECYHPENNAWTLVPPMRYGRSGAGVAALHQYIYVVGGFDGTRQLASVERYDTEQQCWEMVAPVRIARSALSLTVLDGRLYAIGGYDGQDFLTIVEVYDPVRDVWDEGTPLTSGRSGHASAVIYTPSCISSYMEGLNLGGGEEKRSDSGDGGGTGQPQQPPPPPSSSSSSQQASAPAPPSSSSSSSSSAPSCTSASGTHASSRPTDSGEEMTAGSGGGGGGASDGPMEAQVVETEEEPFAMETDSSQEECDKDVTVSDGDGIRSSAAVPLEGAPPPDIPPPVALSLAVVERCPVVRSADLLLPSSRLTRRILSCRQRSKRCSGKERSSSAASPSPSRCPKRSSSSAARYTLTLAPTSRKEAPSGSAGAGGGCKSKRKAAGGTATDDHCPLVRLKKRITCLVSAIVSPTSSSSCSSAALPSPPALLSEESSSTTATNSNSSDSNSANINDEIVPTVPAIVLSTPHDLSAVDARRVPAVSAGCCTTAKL
Description: whole-cell patch-clamp of HEK-293 cells expressing AgKv2.[…], current inhibition at +[…] mV. The format is cell-based. Background: In patch-clamp work, channel activity is measured electrically.

Structures are written as SMILES. Like-named read-outs stand apart in the source and are kept apart here.

Turning to `CCCCCC(O)CCCC(=O)O` (stereo not drawn) [5-HDC], for the setting “read-out: Patch Clamp / IC50 /”, the IC50 turned out to be 30000 nM.

In the case of `CN(C)c1cccc2c(S(=O)(=O)NCCCCCCCCCCC(=O)O)cccc12` [DAUDA], under “read-out: Patch Clamp / IC50 /”, the IC50 is 1180 nM. Regarding `CCCCCCCCCC(=O)O` [decanoic acid], the IC50 amounted to 610 nM.

For the origin of these results see PMC6315728, “Fatty Acid and Related Potassium Kv2 Channel Blockers: Toxicity and Physiological Actions on Mosquitoes” (Insects, 2018).
